# Molecular target: T1, DNA polymerase δ (Pol δ) holoenzyme (Homo sapiens, UniProt P28340)
# T1 construct: gene POLD1; recombinant human Pol δ heterotetramer; with other Pol δ subunits (heterotetramer); PCNA
# Experiment: primer extension by reconstituted Pol δ holoenzyme with 6-thio-dGTP ([…]) replacing dGTP; inserted, not significantly inhibitory
# Assay type: biochemical
# T1 sequence (P28340 whole entry): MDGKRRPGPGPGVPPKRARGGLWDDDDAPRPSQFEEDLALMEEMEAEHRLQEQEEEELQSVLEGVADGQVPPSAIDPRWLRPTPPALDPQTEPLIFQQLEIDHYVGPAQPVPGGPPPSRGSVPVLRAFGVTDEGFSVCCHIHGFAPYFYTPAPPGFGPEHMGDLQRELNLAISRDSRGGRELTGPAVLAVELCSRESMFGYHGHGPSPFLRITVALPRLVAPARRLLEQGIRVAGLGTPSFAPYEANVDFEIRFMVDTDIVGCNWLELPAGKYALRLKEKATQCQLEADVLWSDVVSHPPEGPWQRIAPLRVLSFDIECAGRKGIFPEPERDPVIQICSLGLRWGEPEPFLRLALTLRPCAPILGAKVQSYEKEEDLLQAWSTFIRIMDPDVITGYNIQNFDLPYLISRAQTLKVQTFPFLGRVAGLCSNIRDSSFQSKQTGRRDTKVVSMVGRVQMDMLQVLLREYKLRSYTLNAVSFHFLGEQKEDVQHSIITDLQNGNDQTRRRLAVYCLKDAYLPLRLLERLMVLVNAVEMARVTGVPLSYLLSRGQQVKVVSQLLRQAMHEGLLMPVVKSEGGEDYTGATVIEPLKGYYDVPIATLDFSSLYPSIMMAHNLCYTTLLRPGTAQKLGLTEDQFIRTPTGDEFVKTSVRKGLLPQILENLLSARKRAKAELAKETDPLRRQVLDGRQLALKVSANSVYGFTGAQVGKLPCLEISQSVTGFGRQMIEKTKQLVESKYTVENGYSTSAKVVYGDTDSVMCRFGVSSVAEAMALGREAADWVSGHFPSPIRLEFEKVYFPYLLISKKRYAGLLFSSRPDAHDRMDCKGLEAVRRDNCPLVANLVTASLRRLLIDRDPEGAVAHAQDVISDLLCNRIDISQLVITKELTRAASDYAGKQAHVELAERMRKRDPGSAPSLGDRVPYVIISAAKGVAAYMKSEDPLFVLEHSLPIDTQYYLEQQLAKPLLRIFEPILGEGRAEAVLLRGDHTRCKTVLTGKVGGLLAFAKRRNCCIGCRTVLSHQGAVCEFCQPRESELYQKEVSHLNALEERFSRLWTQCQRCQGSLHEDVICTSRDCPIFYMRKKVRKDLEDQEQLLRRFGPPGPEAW
# T1 sequence (P49005 whole entry partner): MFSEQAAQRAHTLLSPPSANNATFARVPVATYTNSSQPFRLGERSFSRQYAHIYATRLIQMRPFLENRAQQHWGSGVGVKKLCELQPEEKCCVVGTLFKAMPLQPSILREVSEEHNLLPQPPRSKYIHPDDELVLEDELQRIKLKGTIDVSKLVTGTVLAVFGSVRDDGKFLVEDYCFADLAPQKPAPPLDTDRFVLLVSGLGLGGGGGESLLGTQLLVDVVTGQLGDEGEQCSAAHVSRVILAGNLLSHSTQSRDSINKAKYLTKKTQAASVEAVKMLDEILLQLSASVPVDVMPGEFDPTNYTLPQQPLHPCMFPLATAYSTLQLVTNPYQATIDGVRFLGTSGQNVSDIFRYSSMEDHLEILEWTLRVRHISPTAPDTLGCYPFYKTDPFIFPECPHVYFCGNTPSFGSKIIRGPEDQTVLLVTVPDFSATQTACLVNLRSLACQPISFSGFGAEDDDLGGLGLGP
# T1 sequence (Q15054 2-466 partner): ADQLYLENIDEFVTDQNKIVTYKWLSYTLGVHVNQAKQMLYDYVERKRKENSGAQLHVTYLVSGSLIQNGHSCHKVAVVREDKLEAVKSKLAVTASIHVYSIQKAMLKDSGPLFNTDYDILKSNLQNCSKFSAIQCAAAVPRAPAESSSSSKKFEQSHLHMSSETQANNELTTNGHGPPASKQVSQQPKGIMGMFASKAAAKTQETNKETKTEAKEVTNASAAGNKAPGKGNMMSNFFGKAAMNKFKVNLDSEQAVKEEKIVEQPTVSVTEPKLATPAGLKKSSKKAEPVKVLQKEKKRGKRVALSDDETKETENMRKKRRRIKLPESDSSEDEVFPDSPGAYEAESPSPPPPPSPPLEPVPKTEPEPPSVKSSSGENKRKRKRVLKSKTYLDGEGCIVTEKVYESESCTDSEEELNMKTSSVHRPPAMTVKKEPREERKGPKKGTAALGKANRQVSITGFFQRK
# T1 sequence (Q9HCU8 whole entry partner): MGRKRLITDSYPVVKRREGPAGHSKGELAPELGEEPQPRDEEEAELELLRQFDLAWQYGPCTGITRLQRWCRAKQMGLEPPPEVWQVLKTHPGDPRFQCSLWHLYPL
# T1 sequence (P12004 whole entry partner): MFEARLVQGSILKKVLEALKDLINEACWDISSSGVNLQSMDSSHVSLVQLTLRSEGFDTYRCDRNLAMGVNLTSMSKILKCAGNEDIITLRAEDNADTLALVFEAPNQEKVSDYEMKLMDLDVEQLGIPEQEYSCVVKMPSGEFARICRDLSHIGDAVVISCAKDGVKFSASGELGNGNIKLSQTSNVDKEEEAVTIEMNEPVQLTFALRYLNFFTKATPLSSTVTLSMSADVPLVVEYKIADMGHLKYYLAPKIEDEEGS
smiles,measurement,value
Nc1nc2c(ncn2[C@H]2C[C@H](O)[C@@H](COP(=O)(O)OP(=O)(O)OP(=O)(O)O)O2)c(=S)[nH]1 [6-thio-dGTP],primer extension by reconstituted Pol δ holoenzyme with 6-thio-dGTP (9.7 μM) rep,The substitution of 6-thio-dGTP for dGTP did not significantly alter primer extension
